From the NIST ThermoML archive (doi:10.1021/je800266e)

Columns and labels:
[1] = for Triple point temperature: Adiabatic calorimetry; for Normal melting temperature: DTA
[2] = Molar enthalpy of transition or fusion
[3] = molar heat capacity at constant pressure; conditions: 101.33 kPa, Small (less than 1 g) adiabatic calorimetry

CCC(=O)[c-]1cccc1.[Fe+2].c1cc[cH-]c1 [propanoylferrocene]
[1], Crystal
Conditions | Normal melting temperature [°C] | Triple point temperature [K]
– | 5.1 | 276.83

Conditions | Molar enthalpy of transition or fusion [kJ/mol] | molar heat capacity at constant pressure [J/K/mol]
[2], Crystal, Adiabatic calorimetry | 12.7 | –
[2], Crystal, DSC | 14.7 | –
[3], 10 K, Crystal | – | 4.607
[3], 15 K, Crystal | – | 11.25
[3], 20 K, Crystal | – | 18.61
[3], 25 K, Crystal | – | 26.27
[3], 30 K, Crystal | – | 34.16
[3], 35 K, Crystal | – | 42.07
[3], 40 K, Crystal | – | 49.63
[3], 45 K, Crystal | – | 56.35
[3], 50 K, Crystal | – | 61.76
[3], 55 K, Crystal | – | 66.08
[3], 60 K, Crystal | – | 70.11
[3], 65 K, Crystal | – | 74.36
[3], 70 K, Crystal | – | 79.11
[3], 75 K, Crystal | – | 84.35
[3], 80 K, Crystal | – | 89.8
[3], 90 K, Crystal | – | 99.79
[3], 100 K, Crystal | – | 108.7
[3], 110 K, Crystal | – | 116.7
[3], 120 K, Crystal | – | 124.2
[3], 130 K, Crystal | – | 131.6
[3], 140 K, Crystal | – | 138.9
[3], 150 K, Crystal | – | 146.4
[3], 160 K, Crystal | – | 154
[3], 170 K, Crystal | – | 161.9
[3], 180 K, Crystal | – | 170
[3], 190 K, Crystal | – | 178.3
[3], 200 K, Crystal | – | 186.8
[3], 210 K, Crystal | – | 195.4
[3], 220 K, Crystal | – | 204.1
[3], 230 K, Crystal | – | 212.9
[3], 240 K, Crystal | – | 221.9
[3], 250 K, Crystal | – | 231
[3], 260 K, Crystal | – | 240.3
[3], 270 K, Crystal | – | 250.1
[3], 280 K, Crystal | – | 260.5
[3], 290 K, Crystal | – | 271.7
[3], 298.15 K, Crystal | – | 280.7
[3], 300 K, Crystal | – | 282.7
[3], 310 K, Crystal | – | 293.8
[3], 311.13 K, Crystal | – | 295
[3], 311.13 K, Liquid | – | 347.6
[3], 320 K, Liquid | – | 353.3
[3], 330 K, Liquid | – | 359.7
[3], 340 K, Liquid | – | 365.7
[3], 350 K, Liquid | – | 372.9
[3], 360 K, Liquid | – | 378.5
[3], 370 K, Liquid | – | 381.9

CCC[c-]1cccc1.[Fe+2].c1cc[cH-]c1 [propylferrocene]
Conditions | Molar enthalpy of transition or fusion, Crystal 1, Adiabatic calorimetry [kJ/mol] | Molar enthalpy of transition or fusion, Crystal 1, DSC [kJ/mol] | Molar enthalpy of transition or fusion, Crystal 2, Adiabatic calorimetry [kJ/mol] | Normal melting temperature, Crystal 1 [°C] | Triple point temperature, Crystal 1 [K] | Triple point temperature, Crystal 2 [K]
[1] | – | – | – | 38.47 | 311.62 | 186.7
[2] | 19.2 | 19.7 | 1.23 | – | – | –

[3]
Conditions | molar heat capacity at constant pressure [J/K/mol]
5 K, Crystal 2 | 0.5339
10 K, Crystal 2 | 3.806
15 K, Crystal 2 | 11.48
20 K, Crystal 2 | 20.55
25 K, Crystal 2 | 29.5
30 K, Crystal 2 | 37.6
35 K, Crystal 2 | 44.82
40 K, Crystal 2 | 51.46
45 K, Crystal 2 | 57.41
50 K, Crystal 2 | 62.94
55 K, Crystal 2 | 68.11
60 K, Crystal 2 | 72.96
65 K, Crystal 2 | 77.55
70 K, Crystal 2 | 81.91
75 K, Crystal 2 | 86.11
80 K, Crystal 2 | 89.89
90 K, Crystal 2 | 98.25
100 K, Crystal 2 | 106.2
110 K, Crystal 2 | 114.1
120 K, Crystal 2 | 122
130 K, Crystal 2 | 130.2
140 K, Crystal 2 | 139.3
150 K, Crystal 2 | 149.6
160 K, Crystal 2 | 161.7
170 K, Crystal 2 | 173.8
180 K, Crystal 2 | 185.9
186.7 K, Crystal 1 | 191.3
186.7 K, Crystal 2 | 194
190 K, Crystal 1 | 193.3
200 K, Crystal 1 | 199.5
210 K, Crystal 1 | 205.6
220 K, Crystal 1 | 212.1
230 K, Crystal 1 | 220.2
240 K, Crystal 1 | 230.2
250 K, Crystal 1 | 244.6
260 K, Crystal 1 | 274.7
270 K, Crystal 1 | 324
276.03 K, Crystal 1 | 286.8
276.03 K, Liquid | 305.9
280 K, Liquid | 308.4
290 K, Liquid | 314.9
298.15 K, Liquid | 319.5
300 K, Liquid | 320.5
310 K, Liquid | 325.8
320 K, Liquid | 331.8
330 K, Liquid | 338.2
340 K, Liquid | 344.4
350 K, Liquid | 350.7
360 K, Liquid | 356.6
370 K, Liquid | 361.5
